Entries after “also recorded” stand apart in the source; their conditions may differ.
What was measured:
mouse LPA1 [1] = biological target: T1, mouse LPA1 (Mus musculus, UniProt P61793); parameters: expressed in transfected cells; host or cells: HEK293T (transient); for part of the results RH7777 membranes; details: previously reported; cited from earlier work
human LPA3 [2] = biological target: T2, human LPA3 (Homo sapiens, UniProt Q9UBY5); parameters: expressed in transfected cells; host or cells: HEK293T (transient); details: previously reported; cited from earlier work
T2 sequence (Q9UBY5 1-353): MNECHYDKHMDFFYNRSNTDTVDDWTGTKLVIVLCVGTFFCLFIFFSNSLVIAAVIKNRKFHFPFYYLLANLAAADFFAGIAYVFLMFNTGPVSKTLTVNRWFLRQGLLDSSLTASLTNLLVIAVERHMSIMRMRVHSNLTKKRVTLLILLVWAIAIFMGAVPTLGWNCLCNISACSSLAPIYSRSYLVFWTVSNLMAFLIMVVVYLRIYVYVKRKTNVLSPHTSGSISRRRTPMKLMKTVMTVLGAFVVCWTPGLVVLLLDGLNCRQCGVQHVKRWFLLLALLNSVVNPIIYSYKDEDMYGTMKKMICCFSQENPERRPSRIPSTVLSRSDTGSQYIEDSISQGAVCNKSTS

human LPA2 [3] = biological target: T3, human LPA2 (Homo sapiens, UniProt Q9HBW0); parameters: expressed in transfected cells; host or cells: HEK293T (transient); details: previously reported; cited from earlier work
T3 sequence (Q9HBW0 whole entry): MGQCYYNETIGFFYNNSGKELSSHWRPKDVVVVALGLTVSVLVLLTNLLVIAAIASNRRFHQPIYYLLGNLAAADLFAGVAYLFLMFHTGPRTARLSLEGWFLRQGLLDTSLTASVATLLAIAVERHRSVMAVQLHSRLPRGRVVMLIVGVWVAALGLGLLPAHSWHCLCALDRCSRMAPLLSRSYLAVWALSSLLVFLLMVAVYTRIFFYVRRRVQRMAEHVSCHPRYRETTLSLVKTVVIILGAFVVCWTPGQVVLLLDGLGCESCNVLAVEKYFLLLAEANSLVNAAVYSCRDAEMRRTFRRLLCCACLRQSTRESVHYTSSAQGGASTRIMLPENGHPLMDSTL

human platelets [4] = details: previously reported; cited from earlier work
Xenopus laevis ooctyes [5] = details: previously reported; cited from earlier work
mouse LPA1 [6] = biological target: T1, mouse LPA1; assay: GTP[γ35S] binding, LPA1-transfected HEK293T (or RH7777) cell membranes; assay type: biochemical; parameters: expressed in transfected cells; host or cells: HEK293T (transient); for part of the results RH7777 membranes; details: for antagonist activity at LPA1: block of LPA-induced GTP[γ35S] binding
Description: (§1) The appropriate receptor plasmid DNA (encoding mouse LPA1, human LPA2 or human LPA3) was mixed with equal amounts of expression plasmids (pcDNA3) encoding a mutated (C351F) rat Gi2a, cow β1, and γ2 proteins and these DNAs were used to transfect monolayers of HEK293T cells (where ‘T’ indicates expression of the SV-40 virus large T antigen) using the calcium phosphate precipitate method. After about 60 hours, cells were harvested, membranes were prepared, aliquoted and stored at −70° C. until use.
(§2) The GTP[35 γS] assay was performed as described by us previously. Membranes containing 5 ug of protein were incubated in 0.1 ml GTP-binding buffer (in mM: HEPES 50, NaCl 100, MgCl2 10, pH7.5) containing […], […], 0.1 nM GTP[35 γS] (1200 Ci/mmol), and indicated lipid(s) for 30 minutes at 30° C. Samples were analyzed for membrane-bound radionuclide using a Brandel Cell Harvester (Gaithersburg, Md.).
(§3) The X-intercept of the linear transformation is equal to the inverse log of the KI.
(§4) Membranes prepared from these cells are used to measure GTPγ[^35S] binding as a function of test compound concentration. The resulting dose-response curves provide relative potency (EC50) and efficacy (Emax) for the test compounds.

LPA receptors = assay: whole cell assays of calcium mobilization or inhibition of cAMP accumulation, agonist activity; assay type: cell-based
Description: (§5) Assays for cAMP accumulation were conducted on populations of 5×10^5 cells stimulated with […] in the presence of the phosphodiesterase inhibitor isomethylbutylxanthine (IBMX) for 15 minutes at 30° C. cAMP was measured by automated radioimmunoassay.
A FLIPR™ (Molecular Devices, Inc.) was used to measure intracellular calcium in A431 and HEK293T cells. A431 cells were seeded (˜50,000 cells/well) in 96-well clear bottom black microplates (Corning Costar Corp., Cambridge, Mass.) and left overnight in CO2 incubator at 37° C. HEK293T cells were treated likewise, but seeded onto poly D-lysine coated microplates (Becton Dickinson, Franklin Lakes, N.J.). A431 cells were dye-loaded with 4 μM Fluo-3 AM ester (Molecular Probes Inc., Eugene, Oreg.) in a loading buffer (1×HBSS buffer, pH 7.4, containing 20 mM HEPES, 0.1% BSA, and 2.5 mM probenecid) for 1 hour at 37° C. Cells were then washed four times with the loading buffer and exposed in the FLIPR™ to sets of compounds. HEK293T cells were loaded with 2 μM Fluo-4 AM ester (Molecular Probes Inc., Eugene, Oreg.) in the same loading buffer without probenecid for 30 minutes and washed four times before being exposed to compounds in the FLIPR™. In all cases, each concentration of each compound was tested in at least quintuplicate.

human LPA3 [7] = biological target: T2, human LPA3; assay: GTP[γ35S] binding, LPA3-transfected HEK293T cell membranes; assay type: biochemical; parameters: expressed in transfected cells; host or cells: HEK293T (transient); details: block of LPA-induced GTP[γ35S] binding
Description: as §1, §2, §3, §4

[8] = test system: renal injury following ischemia-reperfusion; assay: renal ischemia-reperfusion model; assay type: in vivo, C57BL6 mice; details: 1 mg/kg/2 hr
Description: C57BL6 mice (20 gm, 8 wks of age) were used for all studies. The surgical protocol of renal IR has been previously described (Okusa et al., 1999. Am J. Physiol. (Renal Physiol.) 277: F404–412; Okusa, et al., 2000 Am. J. Physiol. (Renal Physiol.) 279; F809–F818, and Okusa et al., 2001 Kidney Int. 59:2114–2125). For the injury protocol, bilateral flank incisions were made under anesthesia with a regimen that consists of ketamine (100 mg/kg, ip.), xylazine (10 mg/kg, ip.) and acepromazine (1 mg/kg, im.). Renal pedicles were exposed and cross-clamped for 27–32 min. Kidneys were examined for immediate reperfusion following clamp removal. Wounds were closed and mice were returned to cages. […] The mice were sacrificed and the kidneys harvested at 1, 4, 8, 24, 48 hrs, 5 and 7 days. […] Mice were sacrificed following 24 hrs of reperfusion and plasma was obtained for BUN and creatinine.

human LPA2 [9] = biological target: T3, human LPA2; assay: GTP[γ35S] binding, LPA2-transfected HEK293T cell membranes; assay type: biochemical; parameters: expressed in transfected cells; host or cells: HEK293T (transient); details: block of LPA-induced GTP[γ35S] binding
Description: as §1, §2, §4

human LPA1 = biological target: T4, human LPA1 (Homo sapiens, UniProt Q92633); assay: GTP[γ35S] binding, baculovirus-infected insect Sf9 cell membrane preparation; assay type: biochemical
T4 construct: expressed in transfected cells; host or cells: Sf9 insect cells, recombinant baculovirus
T4 sequence (Q92633 whole entry): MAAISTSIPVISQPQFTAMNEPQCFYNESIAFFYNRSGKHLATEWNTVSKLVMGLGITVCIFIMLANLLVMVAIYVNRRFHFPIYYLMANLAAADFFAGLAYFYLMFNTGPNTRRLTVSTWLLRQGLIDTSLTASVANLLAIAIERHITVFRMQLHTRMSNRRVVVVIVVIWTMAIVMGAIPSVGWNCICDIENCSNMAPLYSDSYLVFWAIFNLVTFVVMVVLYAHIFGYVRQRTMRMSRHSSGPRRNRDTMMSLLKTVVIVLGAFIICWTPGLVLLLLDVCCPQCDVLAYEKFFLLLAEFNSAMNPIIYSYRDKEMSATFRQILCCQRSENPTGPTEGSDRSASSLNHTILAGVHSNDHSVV
Description: The same activity was determined with human LPA1 using a recombinant baculovirus-infected insect Sf9 cell membrane preparation.

mouse LPA1 [10] = biological target: T1, mouse LPA1; assay: cAMP accumulation in RH7777 cells stably expressing LPA1; assay type: cell-based; parameters: expressed in transfected cells
Description: as §5
Rat hepatoma RH7777 cell monolayers were transfected with the mLPAI plasmid DNA using the calcium phosphate precipitate method and clonal populations expressing the neomycin phosphotransferase gene were selected by addition of geneticin (G418) to the culture media. The RH7777 cells were grown in monolayers at 37° C. in a 5% CO02/95% air atmosphere in growth media consisting of: 90% MEM, 10% fetal bovine serum, 2 mM glutamine and 1 mM sodium pyruvate.
(§6) wls-b8L and the other phosphonates were also tested also for activity in three whole cell assays. […] Finally, the activity of wls-b8L in activating a chloride conductance in Xenopus laevis ooctyes was measured.

human LPA2 [11] = biological target: T3, human LPA2; assay: chloride conductance in Xenopus oocytes injected with human LPA2 mRNA; assay type: cell-based; parameters: expressed in transfected cells; host or cells: Xenopus laevis oocytes, mRNA injection; details: 10 μM applied to the oocyte surface
Description: as §6

human LPA3 [12] = biological target: T2, human LPA3; assay: chloride conductance in Xenopus oocytes injected with human LPA3 mRNA; assay type: cell-based; parameters: expressed in transfected cells; host or cells: Xenopus laevis oocytes, mRNA injection; details: 10 μM applied to the oocyte surface
Description: as §6

Xenopus laevis ooctyes [13] = assay: chloride conductance / depolarization in Xenopus oocytes, endogenous receptor; assay type: cell-based; details: uninjected Xenopus oocytes
Description: as §6

human platelets [14] = assay: platelet aggregation; assay type: cell-based; details: concentrations up to 10 micromolar

T1 sequence (P61793 whole entry): as the sequence (Q92633 whole entry) above, with I4A, I8S, P22Q, H40Y, I61V, E193D, N194H, I269V, S331N, T335N counted along it

CCCCCCCC/C=C\CCCCCCCC(=O)NCCOP(=O)(O)O [NAEPA, N-oleoyl ethanolamide phosphoric acid]
GTP[γ35S] binding at LPA1 containing membranes relative to LPA (literature) (mouse LPA1 [1]): nearly indistinguishable from LPA
activity at recombinant LPA3 relative to LPA (literature) (human LPA3 [2]): distinctly less active than LPA
GTP[γ35S] binding at LPA2 containing membranes relative to LPA (literature) (human LPA2 [3]): nearly indistinguishable from LPA
platelet aggregation (literature) (human platelets [4]): nearly indistinguishable from LPA
oocyte depolarization (literature) (Xenopus laevis ooctyes [5]): distinctly less active than LPA

CCCCCCCC/C=C\CCCCCCCC(=O)N[C@@H](COP(=O)(O)O)Cc1ccccc1 [VPC12084]
antagonist activity at LPA1 (mouse LPA1 [6]): did block LPA activity
agonist activity in whole cell assays (LPA receptors): appreciable agonist activity

CCCCCCCC/C=C\CCCCCCCC(=O)N[C@H](COP(=O)(O)O)Cc1ccc(OCc2ccccc2)cc1 [VPC12249]
antagonist activity at LPA3 (human LPA3 [7]): surmountable antagonist
tissue preservation, H and E sections [8]: marked degree of tissue preservation
antagonist activity at LPA2 (human LPA2 [9]): lack of antagonist activity
antagonist activity at LPA1 (mouse LPA1 [6]): surmountable antagonist
antagonist activity at human LPA1 (human LPA1): same activity
agonist activity in whole cell assays (LPA receptors): completely devoid of agonist activity
block of the inhibition of forskolin-induced increases in cAMP levels (mouse LPA1 [10]; RH7777 cells stably expressing LPA1): inhibited

CCCCCCCC/C=C\CCCCCCCC(=O)NCCCP(=O)(O)O [wls-b8L, (9Z)-N-(3-phosphonopropyl)Octadec-9-enamide]
activation of chloride conductance, human LPA2 mRNA injected (human LPA2 [11]): very modest response
activation of chloride conductance, human LPA3 mRNA injected (human LPA3 [12]): very modest response
activation of chloride conductance, endogenous receptor (Xenopus laevis ooctyes [13]): does not evoke this response
receptor-type selectivity of agonist activity (LPA1 vs LPA2, LPA3) (mouse LPA1 [6]; GTP[γ35S] binding): more potent and efficacious at LPA1 than at either LPA2 or LPA3; also recorded: distinctly more selective regarding its agonist activity at a single LPA receptor (LPA1)
aggregation of human platelets (human platelets [14]): does not elicit aggregation
inhibition of cAMP accumulation (agonist efficacy) (mouse LPA1 [10]; concentration of 1 μM): fully efficacious
